In patent US7803821B2, “Fungicide N-cycloalkyl-carboxamide, thiocarboxamide and N-substituted-carboximidamide derivatives” (Bayer Cropscience SA, priority 2006, dated 2010):

Assay: log P by HPLC on reversed-phase column (C18), EEC Directive 79/831 Annex V.A8
Type: physicochemical
Details: C18, 40° C., 0.1% aqueous formic acid and acetonitrile, gradient 10% to 90% acetonitrile
Description: Temperature: 40° C.; Mobile phases: 0.1% aqueous formic acid and acetonitrile; linear gradient from 10% acetonitrile to 90% acetonitrile.

Structure (SMILES) | logP
COc1ccc(CN(C(=O)c2ccsc2I)C2CC2)cn1 [Example 55] | 2.75
Cn1cc(C(=O)N(Cc2ccc(Cl)nc2)C2CC2)c(C(F)F)n1 [Example 72] | 1.97
